Measured values reported in patent publication US20070225202A1, “Methods for Identifying Modulators of Active Kit Tyrosine Kinase Receptor” (priority 2003, published 2007).

Key:
[1] = system: HMC1.1 cells (naturally expressing KITV560G); test: cells; conditions: Homo sapiens, 72 h, read-out: inhibition of proliferation
Protocol: The cell-viability assay was performed using an ATPlite™ assay (PerkinElmer Life Sciences, Boston, Mass.), according to the manufacturer's protocol. […] Cells were incubated for 72 hours in the presence or absence of KIT inhibitors and cell viability measured

[2] = system: KIT816 mutants; conditions: previous studies; cited from earlier work
[3] = system: constitutively active KIT mutants exhibiting mutations in the juxtamembrane domain; conditions: cited from earlier work
[4] = system: KITD814V and KITD814Y; conditions: KITD814V and KITD814Y expressed in transfected cells; cited from earlier work

| Compound | inhibition at 0.1 µM [1] | effectiveness against KIT816 mutants [2] | inhibition of constitutively active KIT mutants [3] | inhibition of activated KIT receptors [4] |
| --- | --- | --- | --- | --- |
| Cc1ccc(NC(=O)c2ccc(CN3CCN(C)CC3)cc2)cc1Nc1nccc(-c2cccnc2)n1 [Gleevec] | ~80% | ineffective | inhibit constitutively active KIT mutants |  |
| CC(C)(C)n1nc(-c2ccc(Cl)cc2)c2c(N)ncnc21 [PP2] |  |  |  | act as inhibitors of activated KIT receptors |
| Cc1ccc(-c2nn(C(C)(C)C)c3ncnc(N)c23)cc1 [PP1] |  |  |  | act as inhibitors of activated KIT receptors |
